Reference: patent publication US9624206B2, “Antibacterial 1H-indazole and 1H-indole derivatives” (priority 2013, dated 2017)
≈ marks a conversion by molar mass, not a printed value. Like-named read-outs stand apart in the source and are kept apart here.

Columns and labels:
Assay type in all cases: cell-based
[1] = test system: Acinetobacter baumannii T6474; assay: Bacterial growth minimal inhibitory concentration (microdilution, CLSI M7-A7); conditions: multiply-resistant strain (in particular quinolone-resistant), cation-adjusted Mueller-Hinton Broth; for MIC: Acinetobacter baumannii, T6474
Description: (§1) Minimal Inhibitory Concentrations (MICs; mg/L) were determined in cation-adjusted Mueller-Hinton Broth by a microdilution method following the description given in “Methods for Dilution Antimicrobial Susceptibility Tests for Bacteria that Grow Aerobically”, Approved standard, 7th ed., Clinical and Laboratory Standards Institute (CLSI) Document M7-A7, Wayne, Pa., USA (2006).
(§2) All Example compounds were tested against several Gram-positive and Gram-negative bacteria. […] K. pneumoniae A-651 and Acinetobacter baumannii T6474 are multiply-resistant strains (in particular quinolone-resistant), while E. coli ATCC25922 and P. aeruginosa ATCC27853 are quinolone-sensitive strains.

E. coli ATCC25922 = assay: as above; conditions: quinolone-sensitive strain, cation-adjusted Mueller-Hinton Broth; for MIC: Escherichia coli, ATCC25922
Description: as §1, §2

K. pneumoniae A-651 = assay: as above; conditions: multiply-resistant strain (in particular quinolone-resistant), cation-adjusted Mueller-Hinton Broth; for MIC: Klebsiella pneumoniae, A651
Description: as §1, §2

P. aeruginosa ATCC27853 = assay: as above; conditions: quinolone-sensitive strain, cation-adjusted Mueller-Hinton Broth; for MIC: Pseudomonas aeruginosa, ATCC27853
Description: as §1, §2

wild-type E. coli A-1261 = assay: MIC against wild-type E. coli A-1261 with or without alkaline phosphatase or esterase; conditions: Escherichia coli
Description: Minimal Inhibitory Concentrations (MICs; mg/L) were determined in cation-adjusted Mueller-Hinton Broth by a microdilution method following the description given in “Methods for Dilution Antimicrobial Susceptibility Tests for Bacteria that Grow Aerobically”, Approved standard, 7th ed., Clinical and Laboratory Standards Institute (CLSI) Document M7-A7, Wayne, Pa., USA (2006). The compounds of Examples 48 and 49 were tested against wild-type E. coli A-1261 in the absence of alkaline phosphatase or esterase, in the presence of an alkaline phosphatase and in the presence of an esterase. The corresponding antibacterial test results are given in Table 2 hereafter (MICs in mg/L).

[2] = read-out: MIC for E. coli A-1261 In the absence of alkaline phosphatase or esterase
[3] = read-out: MIC for E. coli A-1261 In the presence of an alkaline phosphatase (2 i.U./mL)
[4] = read-out: MIC for E. coli A-1261 In the presence of an esterase (10 i.U./mL)

Row | Compound | MIC [1] | MIC (E. coli ATCC25922) | MIC (K. pneumoniae A-651) | MIC (P. aeruginosa ATCC27853) | MIC (wild-type E. coli A-1261; [2]) | MIC (wild-type E. coli A-1261; [3]) | MIC (wild-type E. coli A-1261; [4]) | MIC for A. Baumannii T6474 [1] | MIC for E. coli ATCC25922 (E. coli ATCC25922) | MIC for K. Pneumoniae A-651 (K. pneumoniae A-651) | MIC for P. aeruginosa ATCC27853 (P. aeruginosa ATCC27853)
1 | C[C@@](CCn1ncc2c(F)c(C#Cc3ccc(CCO)cc3)ccc21)(C(=O)NO)S(C)(=O)=O [Example 36, (R)-4-(4-fluoro-5-((4-(2-hydroxyethyl)phenyl)ethynyl)-1H-indazol-1-yl)-N-hydroxy-2-methyl-2-(methylsulfonyl)butanamide] | ≤ 0.063 µg/mL | ≤ 0.063 µg/mL | 0.125 µg/mL (≈ 0.264 µM) | 1 µg/mL (≈ 2.11 µM) | – | – | – | – | – | – | –
2 | C[C@@H](O)c1ccc(C#Cc2ccc3c(cnn3CC[C@](C)(C(=O)NO)S(C)(=O)=O)c2F)cc1 [Example 37, (R)-4-(4-fluoro-5-((4-((R)-1-hydroxyethyl)phenyl)ethynyl)-1H-indazol-1-yl)-N-hydroxy-2-methyl-2-(methylsulfonyl)butanamide] | ≤ 0.063 µg/mL | ≤ 0.063 µg/mL | 0.125 µg/mL (≈ 0.264 µM) | 1 µg/mL (≈ 2.11 µM) | – | – | – | – | – | – | –
3 | C[C@@](CCn1ncc2c(F)c(C#CC#CC3(O)COC3)ccc21)(C(=O)NO)S(C)(=O)=O [Example 38, (R)-4-(4-fluoro-5-((3-hydroxyoxetan-3-yl)buta-1,3-diyn-1-yl)-1H-indazol-1-yl)-N-hydroxy-2-methyl-2-(methylsulfonyl)butanamide] | 32 µg/mL (≈ 71.2 µM) | 0.5 µg/mL (≈ 1.11 µM) | 1 µg/mL (≈ 2.22 µM) | 1 µg/mL (≈ 2.22 µM) | – | – | – | – | – | – | –
4 | C[C@@](CCn1ncc2c(F)c(C#CC#CC3(CO)CC3)ccc21)(C(=O)NO)S(C)(=O)=O [Example 39, (R)-4-(4-fluoro-5-((1-(hydroxymethyl)cyclopropyl)buta-1,3-diyn-1-yl)-1H-indazol-1-yl)-N-hydroxy-2-methyl-2-(methylsulfonyl)butanamide] | 32 µg/mL (≈ 71.5 µM) | 0.25 µg/mL (≈ 0.559 µM) | 0.5 µg/mL (≈ 1.12 µM) | 2 µg/mL (≈ 4.47 µM) | – | – | – | – | – | – | –
5 | C[C@@](CCn1ncc2c(F)c(C#Cc3ccc(C4(CO)COC4)cc3)ccc21)(C(=O)NO)S(C)(=O)=O [Example 40, (R)-4-(4-fluoro-5-((4-(3-(hydroxymethyl)oxetan-3-yl)phenyl)ethynyl)-1H-indazol-1-yl)-N-hydroxy-2-methyl-2-(methylsulfonyl)butanamide] | 0.5 µg/mL (≈ 0.97 µM) | 0.5 µg/mL (≈ 0.97 µM) | 1 µg/mL (≈ 1.94 µM) | 4 µg/mL (≈ 7.76 µM) | – | – | – | – | – | – | –
6 | C[C@@](CCn1ncc2cc(C#CC#C[C@@H]3C[C@H]3CO)ccc21)(C(=O)NO)S(C)(=O)=O [Example 42, (R)—N-hydroxy-4-(5-(((1R,2R)-2-(hydroxymethyl)cyclopropyl)buta-1,3-diyn-1-yl)-1H-indazol-1-yl)-2-methyl-2-(methylsulfonyl)butanamide] | 32 µg/mL (≈ 74.5 µM) | ≤ 0.063 µg/mL | 0.25 µg/mL (≈ 0.582 µM) | 0.5 µg/mL (≈ 1.16 µM) | – | – | – | – | – | – | –
7 | C[C@@](CCn1ccc2cc(C#Cc3ccc(CO)cc3F)ccc21)(C(=O)NO)S(C)(=O)=O [Example 43, (R)-4-(5-((2-fluoro-4-(hydroxymethyl)phenyl)ethynyl)-1H-indol-1-yl)-N-hydroxy-2-methyl-2-(methylsulfonyl)butanamide] | 16 µg/mL (≈ 34.9 µM) | 0.5 µg/mL (≈ 1.09 µM) | 0.5 µg/mL (≈ 1.09 µM) | 1 µg/mL (≈ 2.18 µM) | – | – | – | – | – | – | –
8 | C[C@@](CCn1ccc2cc(C#Cc3ccc([C@@H](O)CO)cc3)ccc21)(C(=O)NO)S(C)(=O)=O [Example 44, (R)-4-(5-((4-((R)-1,2-dihydroxyethyl)phenyl)ethynyl)-1H-indol-1-yl)-N-hydroxy-2-methyl-2-(methylsulfonyl)butanamide] | 8 µg/mL (≈ 17 µM) | 0.125 µg/mL (≈ 0.266 µM) | 0.25 µg/mL (≈ 0.531 µM) | 2 µg/mL (≈ 4.25 µM) | – | – | – | – | – | – | –
9 | C[C@@](CCn1ccc2cc(C#Cc3ccc(CCO)cc3)ccc21)(C(=O)NO)S(C)(=O)=O [Example 45, (R)—N-hydroxy-4-(5-((4-(2-hydroxyethyl)phenyl)ethynyl)-1H-indol-1-yl)-2-methyl-2-(methylsulfonyl)butanamide] | 8 µg/mL (≈ 17.6 µM) | ≤ 0.063 µg/mL | 0.25 µg/mL (≈ 0.55 µM) | 1 µg/mL (≈ 2.2 µM) | – | – | – | – | – | – | –
10 | C[C@@](CCn1ncc2cc(C#CC#C[C@H]3C[C@@H]3CO)c(F)cc21)(C(=O)NO)S(C)(=O)=O [Example 46, (R)-4-(6-fluoro-5-(((1S,2S)-2-(hydroxymethyl)cyclopropyl)buta-1,3-diyn-1-yl)-1H-indazol-1-yl)-N-hydroxy-2-methyl-2-(methylsulfonyl)butanamide] | > 32 µg/mL | ≤ 0.063 µg/mL | 0.125 µg/mL (≈ 0.279 µM) | 1 µg/mL (≈ 2.23 µM) | – | – | – | – | – | – | –
11 | C[C@@](CCn1ncc2cc(C#Cc3ccc(CCO)cc3)c(F)cc21)(C(=O)NO)S(C)(=O)=O [Example 47, (R)-4-(6-fluoro-5-((4-(2-hydroxyethyl)phenyl)ethynyl)-1H-indazol-1-yl)-N-hydroxy-2-methyl-2-(methylsulfonyl)butanamide] | 0.25 µg/mL (≈ 0.528 µM) | ≤ 0.063 µg/mL | 0.25 µg/mL (≈ 0.528 µM) | 2 µg/mL (≈ 4.22 µM) | – | – | – | – | – | – | –
12 | C[C@@](CCn1ncc2cc(C#Cc3ccc(C4(COP(=O)(O)O)CC4)cc3)ccc21)(C(=O)NO)S(C)(=O)=O [Example 48, (R)-(1-(4-((1-(4-(hydroxyamino)-3-methyl-3-(methylsulfonyl)-4-oxobutyl)-1H-indazol-5-yl)ethynyl)phenyl)cyclopropyl)methyl dihydrogen phosphate] | – | – | – | – | 16 µg/mL | 1 µg/mL | 16 µg/mL | – | – | – | –
13 | CN(C)CC(=O)OCC1(c2ccc(C#Cc3ccc4c(cnn4CC[C@](C)(C(=O)NO)S(C)(=O)=O)c3)cc2)CC1.O=CO [Example 49, (R)-(1-(4-((1-(4-(hydroxyamino)-3-methyl-3-(methylsulfonyl)-4-oxobutyl)-1H-indazol-5-yl)ethynyl)phenyl)cyclopropyl)methyl dimethylglycinate formate] | 2 µg/mL | 1 µg/mL | 2 µg/mL | 16 µg/mL | 1 µg/mL | 1 µg/mL | 0.125 µg/mL | – | – | – | –
14 | C[C@@](CCn1ncc2cc(C#CC#CC[C@@H](O)CO)ccc21)(C(=O)NO)S(C)(=O)=O [Example 50, (R)-4-(5-((R)-6,7-dihydroxyhepta-1,3-diyn-1-yl)-1H-indazol-1-yl)-N-hydroxy-2-methyl-2-(methylsulfonyl)butanamide] | 32 µg/mL (≈ 73.8 µM) | 4 µg/mL (≈ 9.23 µM) | 4 µg/mL (≈ 9.23 µM) | 2 µg/mL (≈ 4.61 µM) | – | – | – | – | – | – | –
15 | C[C@@](CCn1ncc2cc(C#CC#C[C@@H]3C[C@@H](O)[C@@H](O)C3)ccc21)(C(=O)NO)S(C)(=O)=O [Example 51, (R)-4-(5-(((1s,3R,4S)-3,4-dihydroxycyclopentyl)buta-1,3-diyn-1-yl)-1H-indazol-1-yl)-N-hydroxy-2-methyl-2-(methylsulfonyl)butanamide] | – | – | – | – | – | – | – | 4 µg/mL | 0.5 µg/mL | 1 µg/mL | 1 µg/mL
16 | C[C@@](CCn1ncc2cc(C#Cc3ccc(C4(CO)CC4)cc3)ccc21)(C(=O)NO)S(C)(=O)=O [Example 52, (R)—N-hydroxy-4-(5-((4-(1-(hydroxymethyl)cyclopropyl)phenyl)ethynyl)-1H-indazol-1-yl)-2-methyl-2-(methylsulfonyl)butanamide] | 0.125 µg/mL (≈ 0.26 µM) | ≤ 0.063 µg/mL | 0.25 µg/mL (≈ 0.519 µM) | 2 µg/mL (≈ 4.15 µM) | – | – | – | – | – | – | –
17 | C[C@@](CCn1ncc2cc(C#CC#CC34CC(CO)(C3)C4)ccc21)(C(=O)NO)S(C)(=O)=O [Example 53, (R)—N-hydroxy-4-(5-((3-(hydroxymethyl)bicyclo[1.1.1]pentan-1-yl)buta-1,3-diyn-1-yl)-1H-indazol-1-yl)-2-methyl-2-(methylsulfonyl)butanamide] | 1 µg/mL (≈ 2.2 µM) | 0.125 µg/mL (≈ 0.274 µM) | 0.25 µg/mL (≈ 0.549 µM) | 1 µg/mL (≈ 2.2 µM) | – | – | – | – | – | – | –
18 | C[C@@](CCn1ncc2cc(C#CC#CC3(CN)CC3)ccc21)(C(=O)NO)S(C)(=O)=O [Example 54, (R)-4-(5-((1-(aminomethyl)cyclopropyl)buta-1,3-diyn-1-yl)-1H-indazol-1-yl)-N-hydroxy-2-methyl-2-(methylsulfonyl)butanamide] | > 32 µg/mL | 8 µg/mL (≈ 18.7 µM) | 16 µg/mL (≈ 37.3 µM) | 8 µg/mL (≈ 18.7 µM) | – | – | – | – | – | – | –
19 | (R)—N-hydroxy-4-(5-((3-hydroxythietan-3-yl)buta-1,3-diyn-1-yl)-1H-indol-1-yl)-2-methyl-2-(methylsulfonyl)butanamide [Example 32] | – | – | – | – | – | – | – | 16 µg/mL | 0.125 µg/mL | 0.25 µg/mL | 2 µg/mL
